Source: patent US3955959A, “Herbicide for use in transplanted rice” (priority 1974, dated 1976)
Where “and” joins values, the source holds several entries; their conditions need not be identical. Identical values can stand only once.

Experiments:
[1] = tested on: Aj (Aneiliema japonica); test: Example 1 field test, weed control in transplanted rice, Iri, Korea; type: in vivo; conditions: av. of 36 and 63 DAT
Description: (§1) In the field test 48 day-old seedlings (Watanabe variety) were transplanted to plots 2.5 × 6 m. seeded with the weed seeds indicated in Table 1. At 5 and 10 DAT periods, the herbicides were applied to the plants (now at the 1.2 and 2.0 leaf stage, respectively, of grass weed) at the indicated rate in kilograms per hectare (kg/ha). The weed control and rice injury results for 3 replications are reported in percentages as of the indicated times of observation. The percentages given in the "Perennials" column are based on the weight of the weeds at 63 DAT, i.e., 42 gms/3.6 m^2 for the weedy check.

[2] = tested on: Ci (Cyperus iria); test: as above; type: in vivo; conditions: av. of 36 and 63 DAT
Description: as §1

[3] = tested on: Eo (Echinochloa oryzicola); test: as above; type: in vivo; conditions: av. of 36 and 63 DAT
Description: as §1

[4] = tested on: Mv (Monochoria vaginalis); test: as above; type: in vivo; conditions: av. of 36 and 63 DAT
Description: as §1

[5] = tested on: transplanted rice; test: Example 1 field test, rice yield; type: in vivo, rice (Watanabe variety); conditions: in vivo
Description: as §1

[6] = tested on: Echinochloa crusgalli; test: Example 2 field test, weed control, Chia Yi, Taiwan; type: in vivo; conditions: obs. 63 DAT
Description: In the field tests of the herbicide of this invention with transplanted rice, the rice seedlings were grown in conventional manner, by seeding the rice in a typical seedbed of sandy loam to clay soil of the country wherein the test was conducted. For laboratory and greenhouse work the seedlings were obtained by seeding rice in a mixture of soil, e.g., Ray silt loam, and peat in wood flats. For purposes of testing the herbicides on younger rice seedlings (infant or Dapog) the rice was usually allowed to grow for 6-15 days before lifting for transplanting. Older (ordinary) rice plants were usually grown for a period of about 2-3 weeks, or as much as about 7 weeks before lifting. Since the period of growth is dependent upon climatic conditions, a better measure of when to transplant the rice seedling is the leaf stage of growth; for infant or Dapog rice the seedling is lifted at the 1.5-2 leaf stage of growth, and for ordinary seedlings at the 2.5-5 leaf stage. The seedlings were then transplanted to the test plots for evaluation of the herbicide for injury against weed species present with the transplanted rice. The herbicides were then applied to the growth medium of the weeds and transplant rice, either preemergent or postemergent with respect to the weeds and postemergent with respect to the transplanted rice. […] Application rates given in the tables refer to the amount of active ingredient used.
Rice seedlings (ordinary) of Tainan No. 5 variety (japonica) were transplanted at 19 days of growth. Granular formulations of Herbicides A and B were applied at the 1 leaf stage of grass weed (4 DAT) and 2.5 leaf stage of grass weed (10 DAT).

[7] = tested on: Broadleaf: Mv, Sz (Monochoria vaginalis, Sphenoclea zeylanica); test: Example 3 field test on Dapog rice, weed control, Munoz, Philippines; type: in vivo, Monochoria vaginalis and Sphenoclea zeylanica; conditions: obs. 42 DAT
Description: Treatments were replicated four times.

[8] = tested on: Dapog transplanted rice; test: Example 3 field test, rice yield; type: in vivo; conditions: in vivo
Description: (§2) In the tests described in the tables below, the herbicides were formulated and used in granular form in conventional manner. […] The commercial herbicide used was a granular product having 5% active ingredient.
(§3) In the field tests of the herbicide of this invention with transplanted rice, the rice seedlings were grown in conventional manner, by seeding the rice in a typical seedbed of sandy loam to clay soil of the country wherein the test was conducted. For laboratory and greenhouse work the seedlings were obtained by seeding rice in a mixture of soil, e.g., Ray silt loam, and peat in wood flats. For purposes of testing the herbicides on younger rice seedlings (infant or Dapog) the rice was usually allowed to grow for 6-15 days before lifting for transplanting. Older (ordinary) rice plants were usually grown for a period of about 2-3 weeks, or as much as about 7 weeks before lifting. Since the period of growth is dependent upon climatic conditions, a better measure of when to transplant the rice seedling is the leaf stage of growth; for infant or Dapog rice the seedling is lifted at the 1.5-2 leaf stage of growth, and for ordinary seedlings at the 2.5-5 leaf stage. The seedlings were then transplanted to the test plots for evaluation of the herbicide for injury against weed species present with the transplanted rice. The herbicides were then applied to the growth medium of the weeds and transplant rice, either preemergent or postemergent with respect to the weeds and postemergent with respect to the transplanted rice. Application times are designated in the tables as "DAT", meaning "days after transplant". Application rates given in the tables refer to the amount of active ingredient used.
Eleven (11) day-old Dapog seedlings were transplanted and treated at 5 DAT and 14 DAT with Herbicides A and B. The plots were overseeded with Echinochloa crusgalli seeds at 2 kgs/ha prior to transplanting. Treatments were replicated four times.

[9] = tested on: Obw (other broadleaf weeds); test: Example 5 field test, weed control, JAAPR, Japan; type: in vivo
[10] = tested on: Ea (Eleocharis acicularis); test: Example 5 field test, weed control, JAAPR, Japan; type: in vivo
[11] = tested on: transplanted rice (ordinary and infant seedlings); test: Example 5 field test, rice injury
Description: as §2, §3
The rice seedlings were grown to the 1.7 leaf stage for infant seedlings and to the 5.5 leaf stage for ordinary seedlings. Two days after puddling the soil in which the seedlings were to be transplanted, both infant and ordinary seedlings were transplanted into plots 8.5 m^2.
The weed symbol "Obw" represents "other broadleaf weeds" of unspecified identity. Results presented in Table 5 represent the average of 2 replications.

[12] = 1.0 kg/ha, 15 DAT, infant seedlings
[13] = 1.0 kg/ha, 15 DAT, ordinary seedlings
[14] = .25 kg/ha, 2 DAT, infant seedlings
[15] = .25 kg/ha, 2 DAT, ordinary seedlings
[16] = .5 kg/ha, 7 DAT, infant seedlings
[17] = .5 kg/ha, 7 DAT, ordinary seedlings

Compound: CCCCOCN(C(=O)CCl)c1c(C)cccc1C(C)(C)C [Herbicide A, n-(butoxymethyl)-6'-tert-butyl-2-chloro-o-acetotoluidide]
- % Weed Control (Aj) ([1]; 5 DAT, 1.0 kg/ha): 81%
- % Weed Control (Aj) ([1]; 5 DAT, 2.0 kg/ha): 86%
- % Weed Control (Aj) ([1]; 5 DAT, .25 kg/ha): 66%
- % Weed Control (Aj) ([1]; 5 DAT, .5 kg/ha): 84%
- % Weed Control (Aj) ([1]; 10 DAT, 1.0 kg/ha): 79%
- % Weed Control (Aj) ([1]; 10 DAT, 2.0 kg/ha): 88%
- % Weed Control (Aj) ([1]; 10 DAT, .25 kg/ha): 73%
- % Weed Control (Aj) ([1]; 10 DAT, .5 kg/ha): 79%
- % Weed Control (Ci) ([2]; 5 DAT, 1.0 kg/ha): 100%
- % Weed Control (Ci) ([2]; 5 DAT, 2.0 kg/ha): 95%
- % Weed Control (Ci) ([2]; 5 DAT, .25 kg/ha): 85%
- % Weed Control (Ci) ([2]; 5 DAT, .5 kg/ha): 95%
- % Weed Control (Ci) ([2]; 10 DAT, 1.0 kg/ha): 97%
- % Weed Control (Ci) ([2]; 10 DAT, 2.0 kg/ha): 93%
- % Weed Control (Ci) ([2]; 10 DAT, .25 kg/ha): 74%
- % Weed Control (Ci) ([2]; 10 DAT, .5 kg/ha): 98%
- % Weed Control (Eo) ([3]; 5 DAT, 1.0 kg/ha): 91%
- % Weed Control (Eo) ([3]; 5 DAT, 2.0 kg/ha): 94%
- % Weed Control (Eo) ([3]; 5 DAT, .25 kg/ha): 86%
- % Weed Control (Eo) ([3]; 5 DAT, .5 kg/ha): 93%
- % Weed Control (Eo) ([3]; 10 DAT, 1.0 kg/ha): 90%
- % Weed Control (Eo) ([3]; 10 DAT, 2.0 kg/ha): 92%
- % Weed Control (Eo) ([3]; 10 DAT, .25 kg/ha): 82%
- % Weed Control (Eo) ([3]; 10 DAT, .5 kg/ha): 88%
- % Weed Control (Mv) ([4]; 5 DAT, 1.0 kg/ha): 89%
- % Weed Control (Mv) ([4]; 5 DAT, 2.0 kg/ha): 82%
- % Weed Control (Mv) ([4]; 5 DAT, .25 kg/ha): 72%
- % Weed Control (Mv) ([4]; 5 DAT, .5 kg/ha): 80%
- % Weed Control (Mv) ([4]; 10 DAT, 1.0 kg/ha): 72%
- % Weed Control (Mv) ([4]; 10 DAT, 2.0 kg/ha): 83%
- % Weed Control (Mv) ([4]; 10 DAT, .25 kg/ha): 53%
- % Weed Control (Mv) ([4]; 10 DAT, .5 kg/ha): 80%
- Yield (% of Hand-weeded Check) [5]: 102% and 101% and 100% and 98% and 99%
- % Weed Control (Echinochloa crusgalli) ([6]; 4 DAT, 1.0 kg/ha): 100%
- % Weed Control (Echinochloa crusgalli) ([6]; 4 DAT, 2.0 kg/ha): 100%
- % Weed Control (Echinochloa crusgalli) ([6]; 4 DAT, .25 kg/ha): 85%
- % Weed Control (Echinochloa crusgalli) ([6]; 4 DAT, .5 kg/ha): 98%
- % Weed Control (Echinochloa crusgalli) ([6]; 10 DAT, 1.0 kg/ha): 100%
- % Weed Control (Echinochloa crusgalli) ([6]; 10 DAT, 2.0 kg/ha): 100%
- % Weed Control (Echinochloa crusgalli) ([6]; 10 DAT, .25 kg/ha): 65%
- % Weed Control (Echinochloa crusgalli) ([6]; 10 DAT, .5 kg/ha): 95%
- % Weed control, Broadleaf (Mv,Sz) ([7]; 5 DAT, 1.0 kg/ha): 100%
- % Weed control, Broadleaf (Mv,Sz) ([7]; 5 DAT, 2.0 kg/ha): 100%
- % Weed control, Broadleaf (Mv,Sz) ([7]; 5 DAT, .25 kg/ha): 100%
- % Weed control, Broadleaf (Mv,Sz) ([7]; 5 DAT, .5 kg/ha): 100%
- % Weed control, Broadleaf (Mv,Sz) ([7]; 14 DAT, 1.0 kg/ha): 60%
- % Weed control, Broadleaf (Mv,Sz) ([7]; 14 DAT, 2.0 kg/ha): 60%
- % Weed control, Broadleaf (Mv,Sz) ([7]; 14 DAT, .25 kg/ha): 0%
- % Weed control, Broadleaf (Mv,Sz) ([7]; 14 DAT, .5 kg/ha): 60%
- Yield (% of H.W. Check) [8]: 182% and 177% and 139% and 104% and 93% and 98% and 113%
- rice yield vs hand weeded check [8]: statistically similar to the hand weeded check
- yield in words [8]: outstanding
- control of Obw in words ([9]; 0.25 kg/ha both plots, 1.0 kg/ha ordinary): controlled completely
- % Weed Control (Obw) [9, 12]: 96%
- % Weed Control (Obw) [9, 13]: 100%
- % Weed Control (Obw) [9, 14]: 100%
- % Weed Control (Obw) [9, 15]: 100%
- % Weed Control (Obw) [9, 16]: 83%
- % Weed Control (Obw) [9, 17]: 82%
- % Weed Control (Ea) [10, 12]: 89%
- % Weed Control (Ea) [10, 13]: 90%
- % Weed Control (Ea) [10, 14]: 87%
- % Weed Control (Ea) [10, 15]: 79%
- % Weed Control (Ea) [10, 16]: 89%
- % Weed Control (Ea) [10, 17]: 98%
- Injury [11, 12]: 0
- Injury [11, 13]: 0
- Injury [11, 14]: 0
- Injury [11, 15]: 0
- Injury [11, 16]: 0
- Injury [11, 17]: 0
- injury to seedlings in words ([11]; ordinary and infant seedlings): Injury to neither ordinary nor infant seedlings occurred
